Where two headings read alike, the source gives them in different places. No end group written: not given here.
Target: T1, GPR103 T215^5.39A (Homo sapiens, UniProt Q96P65, T215A)
T1 construct: we used human full-length QRFPR-encoding plasmids; expressed in transfected cells; host or cells: HEK293 cells (HEK293A in the flow cytometry section), pCAGGS vector
T1 sequence (Q96P65 1-431 T215A): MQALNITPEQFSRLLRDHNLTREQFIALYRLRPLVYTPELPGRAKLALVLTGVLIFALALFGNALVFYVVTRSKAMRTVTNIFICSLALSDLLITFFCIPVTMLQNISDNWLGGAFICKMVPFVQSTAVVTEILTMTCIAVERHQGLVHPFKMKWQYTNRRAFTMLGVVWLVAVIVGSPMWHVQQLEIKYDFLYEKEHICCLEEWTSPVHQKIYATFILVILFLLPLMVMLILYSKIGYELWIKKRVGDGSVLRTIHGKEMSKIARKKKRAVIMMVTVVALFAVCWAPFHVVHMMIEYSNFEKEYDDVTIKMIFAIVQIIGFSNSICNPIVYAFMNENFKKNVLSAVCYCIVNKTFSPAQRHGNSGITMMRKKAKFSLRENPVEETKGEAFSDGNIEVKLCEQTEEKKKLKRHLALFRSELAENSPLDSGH
Test: TGFα shedding assay; Exp. level WT (1:1)
Assay type: cell-based
Protocol: For the TGFα shedding assay and the flow cytometry analysis, we used human full-length QRFPR-encoding plasmids. Specifically, GPR103 was N-terminally modified with an HA signal sequence followed by a FLAG epitope and then a flexible linker ([…]; the FLAG epitope is underlined) and inserted into the pCAGGS vector. Plasmid encoding GPR103 mutants were generated using Quickchange Site-Directed Mutagensis kit (Agilent).
The TGFα shedding assay was performed as described previously with minor modifications. Plasmid transfection was performed in a 6-well plate with a mixture of 500 ng (per well in a 6-well plate) AP-TGFα-encoding plasmid and 200 ng GPR103-encoding plasmid. After 1-day culture, the transfected cells were harvested by trypsinization, pelleted by centrifugation at 190 × g for 5 min, and washed once with 5 mM HEPES (pH 7.4)-containing Hank’s Balanced Salt Solution (HBSS). After centrifugation, the cells were resuspended in 8 mL of the HEPES-containing HBSS. The cell suspension was seeded in a 96-well culture plate (cell plate) at a volume of 90 μL (per well hereafter) and incubated in a 37 °C incubator with 5% CO2 for 30 min. […] After spinning the cell plates at 190 × g for 2 min, 80 μL of conditioned media was transferred to an empty 96-well plate (conditioned media (CM) plate). Then, 80 μL of AP reaction solution (10 mM p-nitrophenylphosphate (p-NPP), 120 mM Tris-HCl (pH 9.5), 40 mM NaCl, and 10 mM MgCl2) was dispensed into the cell plates and the CM plates. Absorbance at 405 nm of the plates was measured using a microplate reader (SpectraMax 340 PC384, Molecular Devices) before and after 1-h incubation at room temperature. Ligand-induced AP-TGFα release was calculated by subtracting spontaneous AP-TGFα release signal from ligand-induced AP-TGFα release signal. The AP-TGFα release signals were fitted to a four-parameter sigmoidal concentration–response curve, using the Prism 10 software (GraphPad Prism). For each replicate experiment, the pEC50 parameter (negative logarithmic values of EC50 values) of the individual GPR103 mutants were normalized to that of the wild-type GPR103 performed in parallel, and resulting ∆pEC50 values were used to denote ligand response activity of the mutants. […]
Exp. le vel: WT (1:5 0)Exp. le vel: WT (1:5 0)Exp. le vel: WT (1:5 0)Exp. le vel: WT (1:2 0)Exp. le vel: WT (1:2 0)Exp. le vel: WT (1:1 0) […]
L1 4N - t e r mA F2 5N - t e r mA I 2 6N - t e r mA Y 2 9N - t e r mA C 9 82 .5 7A T10 22 .6 1A Exp . l eve l: WT (1 :5)Exp . l evel : >WT (1 :1)Exp. le vel: WT (1:2 0)Exp. le vel: WT (1:2 0)Exp. le vel: WT (1:5 0)Exp . l eve l: WT (1 :1) […]
Exp. le vel: WT (1:1 0)Exp. le vel: WT (1:2 0) C 1 1 83 .2 5AExp. le vel: WT (1:5 0)Exp. le vel: WT (1:5 0)Exp. le vel: WT (1:2 0)Exp . l eve l: WT (1 :5) […]
Exp. le vel: WT (1:5 0)Exp. le vel: WT (1:1 0)Exp. le vel: WT (1:5 0) E203ECL2AExp . l evel : >WT (1 :1)Exp. le vel: WT (1:5 0)Exp. le vel: WT (1:5 0) […]
Exp . l eve l: WT (1 :1) F28Exp. le vel: WT (1:5 0) C 2 8 56 .4 7AExp. le vel: WT (1:2 0) WExp. le vel: WT (1:2 0) F28Exp. le vel: WT (1:5 0)Exp . l evel : >WT (1 :1) […]
Exp. le vel: WT (1:5 0)Exp. le vel: WT (1:5 0) C 3 2 77 .4 8AExp . l eve l: WT (1 :5)Exp . l evel : >WT (1 :1)Exp . l evel : >WT (1 :1) […]
Suppl eme nt ary Figure 1 | Mutational analysis of GPR103. […]
mutants. Data are presented as mean values ± SEM, normally n=3-5; dots), each performed in triplicate. b-d Cell-surface expression (b) and QRFP26-in-duced activation of GPR103 (c, d) were analyzed by the flow cytometry and the TGFα shedding assay, respectively. From the concentration–response curves (a), Emax (c) and ΔpEC50 (d) values relative to the wild type were calculated. Colors in the mutant bars indicate an expression level matching to that of titrated wild type. Statistical analyses were performed using the ordinary one-way ANOVA followed by Dunnett tests with the expression-matched […]

Emax (Exp. #1): 95.52 % WT
Emax (Exp. #2): 99.37 % WT
Emax (Exp. #3): 104.64 % WT
Emax (mean, read-out: Emax): 99.8%
EC50 (n = 3): 6.46 nM
Emax (n = 3, read-out: Emax): 103 ± 2.2%
Substance: TSGPLGNLAEELNGYSRKKGGFSFRF-NH2 [QRFP26]

— article PMC11187126, “Structure and dynamics of the pyroglutamylated RF-amide peptide QRFP receptor GPR103” (Nature Communications, 2024)
